Test results taken from ChEMBL document CHEMBL1201862, “PubChem BioAssay data set” (2004).
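In this assay, cells in 96-well plates receive the compound at five concentrations for 48 hours. Endpoints are linearly interpolated between the surrounding concentrations. The concentration for 50% growth inhibition is given as GI50.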 Activity calls are given as the source filed them. No stated cut-off is given here; in the data, active = GI50 up to about 1.1 µM and inactive = higher.

How the values were obtained:
Experiment in all cases: NCI-60 cell line screen, 48 h
SK-MEL-28 = tested on: SK-MEL-28
ACHN = tested on: ACHN
OVCAR-5 = tested on: OVCAR-5
NCI-H522 = tested on: NCI-H522
MDA-MB-435 = tested on: MDA-MB-435
CAKI-1 = tested on: CAKI-1
SNB-19 = tested on: SNB-19
DU-145 = tested on: DU-145
U-251 = tested on: U-251
KM12 = tested on: KM12
SR = tested on: SR
NCI-H23 = tested on: NCI-H23
786-0 = tested on: 786-0
HCT-116 = tested on: HCT-116
K562 = tested on: K562
LOX IMVI = tested on: LOX IMVI
UACC-62 = tested on: UACC-62
T47D = tested on: T47D
RXF 393 = tested on: RXF 393
UO-31 = tested on: UO-31

| Structure (SMILES) | GI50 (SK-MEL-28) | GI50 (ACHN) | GI50 (OVCAR-5) | GI50 (NCI-H522) | GI50 (MDA-MB-435) | GI50 (CAKI-1) | GI50 (SNB-19) | GI50 (DU-145) | GI50 (U-251) | GI50 (KM12) | GI50 (SR) | GI50 (NCI-H23) | GI50 (786-0) | GI50 (HCT-116) | GI50 (K562) | GI50 (LOX IMVI) | GI50 (UACC-62) | GI50 (T47D) | GI50 (RXF 393) | GI50 (UO-31) |
| --- | --- | --- | --- | --- | --- | --- | --- | --- | --- | --- | --- | --- | --- | --- | --- | --- | --- | --- | --- | --- |
| Cn1c(=O)cc(N2CCCC2)[nH]c1=O | > 100 µM (inactive) | > 100 µM (inactive) | > 100 µM (inactive) | > 100 µM (inactive) | > 100 µM (inactive) | > 100 µM (inactive) | > 100 µM (inactive) | > 100 µM (inactive) | > 100 µM (inactive) | > 100 µM (inactive) | > 100 µM (inactive) | > 100 µM (inactive) | > 100 µM (inactive) | > 100 µM (inactive) | > 100 µM (inactive) | > 100 µM (inactive) |  |  |  |  |
| OC[C@@H](O)[C@H](O)[C@@H](O)/C=N/Nc1ccc(Cl)nn1 | > 100 µM (inactive) | > 100 µM (inactive) | > 100 µM (inactive) | > 100 µM (inactive) | > 100 µM (inactive) | > 100 µM (inactive) | > 100 µM (inactive) | > 100 µM (inactive) | > 100 µM (inactive) | > 100 µM (inactive) |  | > 100 µM (inactive) | > 100 µM (inactive) | > 100 µM (inactive) |  | > 100 µM (inactive) | > 100 µM (inactive) | > 100 µM (inactive) | > 100 µM (inactive) |  |
| NN/C(=N\c1ccc(Cl)cc1)NS(=O)(=O)c1ccc(S(=O)(=O)c2ccccc2)s1 | 46.7 µM (inactive) | 16.8 µM (inactive) | 37.6 µM (inactive) |  |  | 27.7 µM (inactive) | 38.3 µM (inactive) | 21.8 µM (inactive) | 29 µM (inactive) | 9.79 µM (inactive) | 16 µM (inactive) | 20.4 µM (inactive) | 21.4 µM (inactive) | 14.8 µM (inactive) | 10.9 µM (inactive) | 15.3 µM (inactive) | 7.21 µM (inactive) | 8.17 µM (inactive) | 15.5 µM (inactive) | 23.7 µM (inactive) |
| CCOc1ccccc1NC(=O)C(=O)C(/C(=N/N)C(=O)OC)c1nc2ccc([N+](=O)[O-])cc2nc1O (stereo unspecified) | > 100 µM (inactive) |  | > 100 µM (inactive) | 58.3 µM (inactive) | > 100 µM (inactive) | > 100 µM (inactive) |  |  | > 100 µM (inactive) | > 100 µM (inactive) | > 100 µM (inactive) |  | > 100 µM (inactive) | > 100 µM (inactive) | > 100 µM (inactive) | > 100 µM (inactive) | > 100 µM (inactive) | > 100 µM (inactive) | > 100 µM (inactive) |  |
| CS(=O)(=O)c1nc(-c2cc3c(c(S(C)(=O)=O)n2)CCC3)cc2c1CCC2 | > 100 µM (inactive) | > 100 µM (inactive) | > 100 µM (inactive) | > 100 µM (inactive) | > 100 µM (inactive) | > 100 µM (inactive) | 67.5 µM (inactive) | > 100 µM (inactive) | 47.3 µM (inactive) | > 100 µM (inactive) |  | > 100 µM (inactive) | 82.6 µM (inactive) | > 100 µM (inactive) | > 100 µM (inactive) | > 100 µM (inactive) | > 100 µM (inactive) |  | 33.7 µM (inactive) | > 100 µM (inactive) |
| NC(C(=O)OC(=O)c1ccccc1)C(=O)OC(=O)c1ccccc1 | > 100 µM (inactive) | > 100 µM (inactive) | > 100 µM (inactive) | > 100 µM (inactive) | > 100 µM (inactive) | > 100 µM (inactive) | > 100 µM (inactive) | > 100 µM (inactive) | > 100 µM (inactive) | > 100 µM (inactive) |  | > 100 µM (inactive) | > 100 µM (inactive) | > 100 µM (inactive) | > 100 µM (inactive) | > 100 µM (inactive) |  | > 100 µM (inactive) | > 100 µM (inactive) | > 100 µM (inactive) |
| CCOC(=O)c1ccc(-n2nnc(C(N)=O)c2O)cc1 | > 100 µM (inactive) | > 100 µM (inactive) | > 100 µM (inactive) | > 100 µM (inactive) | > 100 µM (inactive) | > 100 µM (inactive) | > 100 µM (inactive) | > 100 µM (inactive) | > 100 µM (inactive) | > 100 µM (inactive) |  | > 100 µM (inactive) | > 100 µM (inactive) | > 100 µM (inactive) | > 100 µM (inactive) |  | > 100 µM (inactive) | > 100 µM (inactive) | > 100 µM (inactive) | > 100 µM (inactive) |
| CNC(=O)c1cccc2c(Nc3ccc(NS(C)(=O)=O)cc3OC)c3cccc(C)c3nc12 | 2.21 µM (inactive) | 0.014 µM (active) | 0.282 µM (active) | 0.279 µM (active) |  | 0.0207 µM (active) | 0.0555 µM (active) |  | 0.0251 µM (active) | 0.479 µM (active) | < 0.01 µM (active) | 0.0418 µM (active) | 0.0483 µM (active) | 0.243 µM (active) | 0.23 µM (active) | 0.0488 µM (active) | 0.0631 µM (active) |  | 0.533 µM (active) | 0.425 µM (active) |
| CCCc1c(O)nc2ccccc2c1O | > 100 µM (inactive) | > 100 µM (inactive) | > 100 µM (inactive) | > 100 µM (inactive) | > 100 µM (inactive) | > 100 µM (inactive) | > 100 µM (inactive) | > 100 µM (inactive) | > 100 µM (inactive) | > 100 µM (inactive) | > 100 µM (inactive) | > 100 µM (inactive) | > 100 µM (inactive) | > 100 µM (inactive) | > 100 µM (inactive) | > 100 µM (inactive) |  |  |  | > 100 µM (inactive) |
| CCC(C)[C@H](NC(=O)N[C@H](C)c1ccccc1)C(=O)OC (stereo partly specified) | > 100 µM (inactive) | > 100 µM (inactive) | > 100 µM (inactive) |  | > 100 µM (inactive) | > 100 µM (inactive) | > 100 µM (inactive) | > 100 µM (inactive) | > 100 µM (inactive) | > 100 µM (inactive) | > 100 µM (inactive) | > 100 µM (inactive) | > 100 µM (inactive) | > 100 µM (inactive) | > 100 µM (inactive) | > 100 µM (inactive) | > 100 µM (inactive) |  |  | > 100 µM (inactive) |
| CCOc1cc2cnc3c4cc(OC)c(OC)cc4ccc3c2cc1OC | > 100 µM (inactive) | > 100 µM (inactive) | > 100 µM (inactive) | 15.2 µM (inactive) |  | > 100 µM (inactive) | 19.4 µM (inactive) |  | 6.4 µM (inactive) | 46.9 µM (inactive) | 27.3 µM (inactive) | > 100 µM (inactive) | > 100 µM (inactive) | > 100 µM (inactive) | 20.7 µM (inactive) | 65 µM (inactive) | > 100 µM (inactive) |  | > 100 µM (inactive) | > 100 µM (inactive) |
| O=c1[nH]nc(Nc2ccc(Cl)cc2)c2nnn(-c3ccc([N+](=O)[O-])cc3)c12 |  | 43.3 µM (inactive) | > 100 µM (inactive) | 4.47 µM (inactive) | 30.1 µM (inactive) | 39.5 µM (inactive) | 30.9 µM (inactive) | 12.1 µM (inactive) | 14.2 µM (inactive) | 26.4 µM (inactive) | 28.1 µM (inactive) | 8.59 µM (inactive) | 17.1 µM (inactive) | 13.9 µM (inactive) | 6.35 µM (inactive) | 14.5 µM (inactive) |  |  |  |  |
| Cc1nc(N)sc1C(=O)/C=C/c1ccc(/C=C/C(=O)c2sc(NC(=O)CCCCCCCCC(=O)Nc3nc(C)c(C(=O)/C=C/c4ccc(/C=C/C(=O)c5sc(N)nc5C)cc4)s3)nc2C)cc1 | 52.8 µM (inactive) | > 100 µM (inactive) | > 100 µM (inactive) | 64.6 µM (inactive) |  | 60.4 µM (inactive) | > 100 µM (inactive) |  | > 100 µM (inactive) | > 100 µM (inactive) | > 100 µM (inactive) | > 100 µM (inactive) | > 100 µM (inactive) | 92 µM (inactive) | > 100 µM (inactive) | > 100 µM (inactive) | 27.7 µM (inactive) |  | > 100 µM (inactive) | > 100 µM (inactive) |
| CC(C)=CCC/C(C)=C/CC/C(C)=C/CSc1ccc(Cl)cc1C(=O)O | 17.3 µM (inactive) | 18.5 µM (inactive) | 18.9 µM (inactive) |  | 20.2 µM (inactive) | 25.1 µM (inactive) | 18.4 µM (inactive) | 23.9 µM (inactive) | 17.5 µM (inactive) | 17 µM (inactive) |  | 17.7 µM (inactive) | 17.1 µM (inactive) | 17.8 µM (inactive) | 25.5 µM (inactive) | 18.1 µM (inactive) | 17.9 µM (inactive) | > 10 µM (inactive) | 24.3 µM (inactive) | 17.5 µM (inactive) |
| O=c1c(C(c2ccc(/C=C/c3ccccc3)cc2)c2c(O)oc3ccccc3c2=O)c(O)oc2ccccc12 | 33.3 µM (inactive) | 18.8 µM (inactive) |  | 18.6 µM (inactive) | 29 µM (inactive) | 23 µM (inactive) | 46.9 µM (inactive) | 50.8 µM (inactive) | 18.5 µM (inactive) | 23 µM (inactive) |  | 28.1 µM (inactive) | 24.4 µM (inactive) | 29.6 µM (inactive) | > 100 µM (inactive) | 25.8 µM (inactive) | 35.6 µM (inactive) | 39.2 µM (inactive) |  | 18.6 µM (inactive) |
| O=C1/C(=C/c2cccs2)NC(=S)N1CN1CCOCC1 | > 100 µM (inactive) | > 100 µM (inactive) | > 100 µM (inactive) |  | > 100 µM (inactive) |  | > 100 µM (inactive) | > 100 µM (inactive) | > 100 µM (inactive) | > 100 µM (inactive) | > 100 µM (inactive) | > 100 µM (inactive) | > 100 µM (inactive) | > 100 µM (inactive) | > 100 µM (inactive) | > 100 µM (inactive) | > 100 µM (inactive) |  |  | > 100 µM (inactive) |
